According to patent US8962637B2, “Bicyclic compounds and their uses as dual c-SRC/JAK inhibitors” (Debiopharm S.A., priority 2010, dated 2015):

What was measured:
c-Src = c-Src (Homo sapiens (Human), UniProt P12931); experiment: TR-FRET c-Src kinase assay; format: biochemical; settings: ATP 50 μM; for inhibition at 0.1 µM: read-out: c-SRC % inhibition at 100 nM, 100 nM; for inhibition at 1 µM: read-out: c-SRC % inhibition at 1 μM
Experimental: Compounds were screened in the TR-FRET assay for JAK2 and c-Src kinase inhibition. Ultra light poly GT (Perkin Elmer) was used as the substrate for JAK2 and c-Src with the ATP concentration of 10 μM and 50 μM, respectively. […] The dose-response curve fitting was done using GraphPad Prism software.

JAK1 = JAK1 (Homo sapiens (Human), UniProt P23458); experiment: JAK1 kinase inhibition; format: biochemical
Sequence of JAK1 (P23458 whole entry): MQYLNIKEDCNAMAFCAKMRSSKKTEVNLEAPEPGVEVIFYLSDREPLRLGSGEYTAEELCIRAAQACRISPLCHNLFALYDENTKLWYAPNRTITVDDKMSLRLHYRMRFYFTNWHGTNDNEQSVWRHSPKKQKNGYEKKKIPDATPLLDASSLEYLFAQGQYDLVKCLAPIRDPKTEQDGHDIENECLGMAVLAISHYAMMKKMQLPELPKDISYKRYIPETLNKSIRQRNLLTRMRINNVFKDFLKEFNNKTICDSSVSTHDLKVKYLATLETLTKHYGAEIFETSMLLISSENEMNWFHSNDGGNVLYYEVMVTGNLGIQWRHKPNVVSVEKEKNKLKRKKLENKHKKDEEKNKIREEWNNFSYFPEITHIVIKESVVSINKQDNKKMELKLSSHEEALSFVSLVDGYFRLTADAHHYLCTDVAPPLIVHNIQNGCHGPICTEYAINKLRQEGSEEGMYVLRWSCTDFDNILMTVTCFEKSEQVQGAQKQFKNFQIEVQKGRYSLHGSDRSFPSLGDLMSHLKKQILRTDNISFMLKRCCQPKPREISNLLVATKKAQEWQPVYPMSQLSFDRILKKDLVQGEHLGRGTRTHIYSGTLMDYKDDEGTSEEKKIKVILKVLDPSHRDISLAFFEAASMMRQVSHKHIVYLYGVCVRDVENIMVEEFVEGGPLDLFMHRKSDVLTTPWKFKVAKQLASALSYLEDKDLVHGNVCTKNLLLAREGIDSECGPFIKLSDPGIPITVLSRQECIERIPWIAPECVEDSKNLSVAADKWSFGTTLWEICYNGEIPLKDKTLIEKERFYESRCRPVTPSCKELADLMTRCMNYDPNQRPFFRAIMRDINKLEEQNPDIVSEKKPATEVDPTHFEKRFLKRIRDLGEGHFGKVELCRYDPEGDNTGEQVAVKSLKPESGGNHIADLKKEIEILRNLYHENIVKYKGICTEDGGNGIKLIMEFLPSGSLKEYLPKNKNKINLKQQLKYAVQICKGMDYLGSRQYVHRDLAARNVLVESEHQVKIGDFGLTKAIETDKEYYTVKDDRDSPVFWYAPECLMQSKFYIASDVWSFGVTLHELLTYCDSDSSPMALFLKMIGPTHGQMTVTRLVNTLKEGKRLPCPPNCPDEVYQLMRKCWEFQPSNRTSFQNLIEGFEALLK

B16F10 tumor cells = experiment: B16F10 survival model; format: in vivo, C57B16 mice
Experimental: IV injection of 0.1×10^6 B16F10 tumor cells in the tail vain of 60 male C57B16 mice. Randomization of mice one day after tumor cell injection into 4 groups of 15 mice. Out of 15, 6 mice were sacrificed on 14th day for counting metastatic foci on lungs. Rest 9 mice were dosed continuously till morbidity/mortality for recording survival.
Plasma collected for drug concentration estimation and whole blood was collected to isolate PBMCs to determine pStat3 inhibition by flow cytometry as PD readout.

A549 tumor cells = experiment: A549 xenograft model; format: in vivo
Experimental: Sub-cutaneous (SC) injection of 5×10^6 A549 tumor cells on the left flank of 48 female athymic nude mice. Randomization of mice 14 days after tumor cell injection into 6 groups of 8 mice each with a mean tumor volume of 134±5 mm3.
Formulation: 20% HPC, 2% ethanol solution in PBS for the compounds No. 45, 117 and 179.
• Normal saline for Erlotinib® Dosing route: Oral for the compounds No. 45, 117 and 179, and Erlotinib® Dose Volume: 10 mL/Kg body weight Dosing schedule: Once daily for 14 consecutive days (Q1Dx14) Dosage: • Group1. Vehicle control • Group2. Erlotinib®-100 MPK • Group3. Compound No. 45—10 MPK • Group4. Compound No. 45—30 MPK • Group5. Compound No. 45—100 MPK • Group6. Compound No. 117—30 MPK • Group7. Compound No. 117—100 MPK • Group8. Compound No. 179—10 MPK • Group9. […] Plasma collected for drug concentration estimation and whole blood was collected to isolate PBMCs (peripheral blood monocytes) to determine pStat3 inhibition by flow cytometry as PD readout. Tumors were snap frozen in liquid nitrogen and stored at −80° C. to estimate pStat3 by flow cytometry as PD readout EXPT. 2
SC injection of 5×10^6 A549 tumor cells on the left flank of 24 female athymic nude mice. Randomization of mice 14 days after tumor cell injection into 3 groups of 8 mice each with a mean tumor volume of 75±7 mm3.
(§1) Formulation: 20% HPC, 2% ethanol solution in PBS for the compound No. 45
• Normal saline for Erlotinib® Dosing route: Oral for compound No. 45 and Erlotinib® Dose Volume: 10 mL/Kg body weight Dosing schedule: Once daily for 14 consecutive days (Q1Dx14) Dosage: • Group1. Vehicle control • Group2. Compound No. 45—150 MPK • Group3. […] Plasma collected for drug concentration estimation and whole blood was collected to isolate PBMCs to determine pStat3 inhibition by flow cytometry as PD readout. Tumors were snap frozen in liquid nitrogen and stored at −80° C. to estimate pStat3 by flow cytometry as PD readout Results: […]

A431 tumor cells = experiment: A431 xenograft model; format: in vivo, athymic nude mice; settings: for TGI: Efficacy - A431 at 100 MPK
Experimental: SC injection of 5×10^6 A431 tumor cells with Matrigel® on the left flank of 24 female athymic nude mice. Randomization of mice 14 days after tumor cell injection into 3 groups of 8 mice each with a mean tumor volume of 90±1 mm3.
as §1
• Normal saline for Gefitinib® Dosing route: Oral for the compound No. 45 and Gefitinib® Dose Volume: 10 mL/Kg body weight Dosing schedule: Once daily for 14 consecutive days (Q1Dx14) PK-PD experiment in A431 model: Tumors were allowed to grow to 250 mm^3 size. Compounds were dosed once and PBMCs and tumors were collected at Tmax for pStat3 estimation. Plasma was also collected to estimate drug concentration estimation. Efficacy experiment in A431 model: Dosage: • Group1. Vehicle control • Group2. Compound No. 45—150 MPK • Group3. […] Plasma collected for drug concentration estimation and whole blood was collected to isolate PBMCs to determine pStat3 inhibition by flow cytometry as PD readout. Tumors were snap frozen in liquid nitrogen and stored at −80° C. to estimate pStat3 by flow cytometry as PD readout Determination of Plasma Drug Concentration: […]

pStat3 = experiment: Quantification of pStat3 in PBMCs by flow cytometry; format: in vivo, mice
Experimental: Phosphorylation of Stat3 was stimulated by addition of hIL6 (10 ug/mL) for 30 min at 37° C. Blood was fixed with formaldehyde (final 2% v/v) for 10 min at 37° C.
Buffy coat (PBMCs) was separated by aspirating translucent layer using pipetteman and washed twice with PBS-1×
Pre chilled PBMC's were permeabilized by adding ice cold Methanol, while vortexing gently (final volume 90% MeOH v/v) and incubated for 30 min on ice.
Permeabilized PBMCs were washed with PBS once. PBMCs re-suspended to 2×10^6 cells in 200 μL of incubation buffer for 10 min at room temperature (RT). Primary Ab was added (1:100 dilution) and incubated 45 min at RT. Washed as before (twice) and re-suspended in fluorochrome conjugated secondary Ab (1:500 dilution) and incubated at RT in dark for 30 min. Washed and re-suspended in […] PBS.
Measured pStat3 using FACS caliber machine (BD). Unstained PBMCs was used for cytometry settings. […] Histograms (cell number V/s FL1-H) were plotted. Percentage of cells that are phosphorylated by IL6 stimulation (M2 population), and inhibition of phosphorylation by inhibitor (decrease in M2 population) are calculated on histogram by marking peaks, M1 and M2.

[1] = mouse, in vivo

Sequence of c-Src (P12931 whole entry, looked up): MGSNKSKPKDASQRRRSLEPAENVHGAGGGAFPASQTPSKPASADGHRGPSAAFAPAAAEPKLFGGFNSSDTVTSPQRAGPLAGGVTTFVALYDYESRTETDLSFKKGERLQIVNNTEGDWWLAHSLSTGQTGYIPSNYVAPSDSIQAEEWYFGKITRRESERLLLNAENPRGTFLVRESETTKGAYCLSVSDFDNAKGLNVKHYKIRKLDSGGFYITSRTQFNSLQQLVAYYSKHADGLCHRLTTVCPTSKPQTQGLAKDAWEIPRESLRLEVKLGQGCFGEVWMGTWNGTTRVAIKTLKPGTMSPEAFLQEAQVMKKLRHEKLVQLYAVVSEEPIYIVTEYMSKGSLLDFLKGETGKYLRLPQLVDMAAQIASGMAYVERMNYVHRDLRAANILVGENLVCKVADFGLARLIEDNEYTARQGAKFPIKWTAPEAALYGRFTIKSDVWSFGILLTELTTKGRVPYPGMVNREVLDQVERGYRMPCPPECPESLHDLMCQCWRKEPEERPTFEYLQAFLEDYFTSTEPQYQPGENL

| SMILES | IC50 (c-Src) [nM] | IC50 (JAK1) [nM] | Survival advantage (B16F10 tumor cells; Efficacy - B16F10 at 100 MPK) | TGI (A549 tumor cells; Efficacy - A549, at 100 MPK) [% at] | TGI (A431 tumor cells) [%] | % pSTAT3 inhibition in PBMCs (MTD study) (pStat3; at 100 MPK) [% at] | MTD [1] [MPK] | inhibition at 0.1 µM (c-Src) [%] | inhibition at 1 µM (c-Src) [%] | further results |
| --- | --- | --- | --- | --- | --- | --- | --- | --- | --- | --- |
| Cc1ccc(NC(=O)c2cccc(C(F)(F)F)c2)cc1N1CCc2nc(Nc3ccc(N4CCN(C)CC4)cc3)ncc2C1=O [Compound 45, N-(4-Methyl-3-{2-[4-(4-methyl-piperazin-1-yl)-phenylamino]-5-oxo-7,8-dihydro-5H-pyrido[4,3-d]pyrimidin-6-yl}-phenyl)-3-trifluoromethyl-benzamide] | 10 | 116 | 9 days | 64 | 48 | 84 | 250 | – | – | inhibition at 0.1 µM (JAK1; read-out: JAK1 % inhibition at 100 nM): 56%; inhibition at 1 µM (JAK1; read-out: JAK1 % inhibition at 1 μM): 82%; Survival advantage (B16F10 tumor cells; B16F10 survival model, dosing Q1Dx14): 37.5%; % TGI (Tumor Growth Inhibition) (A549 tumor cells; A549 Xenograft model, 10 MPK): 28.90%; % TGI (Tumor Growth Inhibition) (A549 tumor cells; A549 Xenograft model, 30 MPK): 55.62%; % TGI (Tumor Growth Inhibition) (A549 tumor cells; A549 Xenograft model, 100 MPK): 63.86%; % TGI (Tumor Growth Inhibition) (A549 tumor cells; A549 Xenograft model, 150 MPK): 53.74%; TGI (A549 tumor cells; A549 Xenograft model, 150 MPK): 54; tumor growth inhibition (A549 tumor cells; A549 xenograft model, 100 MPK (Q1Dx14)): 64%; compound related toxicity (A549 tumor cells; up to 150 MPK during A549 efficacy study): No major effects of compound related toxicity; % TGI (A431 tumor cells; A431 Xenograft model, 100 MPK): 52.55%; PBMCs % pStat3 inhibition (pStat3; A431 Xenograft model, 100 MPK): 56.32%; PBMCs % pStat3 inhibition (pStat3; A549 Xenograft model, 10 MPK): 55.61%; PBMCs % pStat3 inhibition (pStat3; A549 Xenograft model, 30 MPK): 60.66%; PBMCs % pStat3 inhibition (pStat3; A549 Xenograft model, 100 MPK): 65.28%; PBMCs % pStat3 inhibition (pStat3; A549 Xenograft model, 150 MPK): 76.56%; PBMCs % pStat3 inhibition (pStat3; B16F10 model, 30 MPK): 66%; PBMCs % pStat3 inhibition (pStat3; B16F10 model, 100 MPK): 73%; good tolerance ([1]; athymic, 14 days): up to 250 MPK |
| Cc1ccc(NC(=O)c2cccc(C(F)(F)F)c2)cc1N1CCc2nc(Nc3ccc(C(=O)NC4CC4)nc3)ncc2C1 [Compound 117, 5-{6-[2-Methyl-5-(3-trifluoromethyl-benzoylamino)-phenyl]-5,6,7,8-tetrahydro-pyrido[4,3-d]pyrimidin-2-ylamino}-pyridine-2-carboxylic acid cyclopropylamide] | – | 24 | 1 day days | 56 | 54 | 83 | 100 | 80 | 96 | – |
| CNC(=O)c1ccc(Nc2ncc3c(n2)CCN(c2cc(NC(=O)c4cc(C(F)(F)F)ccn4)ccc2Cl)C3)cc1 [Compound 179, 4-Trifluoromethyl-pyridine-2-carboxylic acid {4-chloro-3-[2-(4-methylcarbamoyl-phenylamino)-7,8-dihydro-5H-pyrido[4,3-d]pyrimidin-6-yl]-phenyl}-amide] | 15 | 12 | 4 days | – | 67 | – | 30 | 79 | 93 | TGI (A549 tumor cells; Efficacy - A549, at 30 MPK): 68% at; % pSTAT3 inhibition in PBMCs (MTD study) (pStat3; at 30 MPK): 65% at |
